The test system of series [1] is MDA435/LCC6 wild-type and MDR-1 gene transfected MDA435/LCC6MDR1 breast cancer cells. Kind of series: MTT cytotoxicity assay of free ceramides, 72 hours. As to conditions: free ceramide, wild-type and MDR1 MDA435/LCC6 cells, not separated. The series is classed as cell-based, human. Here is the method: (§1) Human estrogen receptor negative MDA435/LCC6 wild-type and MDR-1 gene transfected MDA435/LCC6^MDR1 multidrug resistant breast cancer cell lines were obtained from Dr. Robert Clark, Georgetown University, Washington, D.C. J774 murine macrophage cells were obtained from ATCC (Rockville, Md.). All cells were grown as adherent monolayer cultures in 25-cm^2 Falcon flasks in DMEM supplemented with 10% fetal bovine serum and 1% L-glutamine. Cells were maintained at 37° C. in humidified air with 5% CO2. Cells were sub-cultured weekly using 0.25% trypsin with 1 mM EDTA (MDA435/LCC6) or gentle cell scraping (J774).
Cell suspensions were diluted 1:1 with trypan blue, counted with a hemocytometer and seeded into 96-well microtitre plates at […] in 0.2 ml complete medium. The perimeter wells were not used and contained 0.2 ml sterile water. […] After 72 hours the cell viability was assessed using a conventional 3-(4,5-dimethylthiazol-2-yl)-2,5-diphenyl tetrazolium bromide (MTT) dye reduction assay. […] The formazan dye was measured spectrophotometrically using a Dynex plate reader (570 nm). […] The cytotoxic effect of each treatment was expressed as percent cell viability relative to untreated control cells (% control) and is defined as: [(Abs570 treated cells)/( Abs570 control cells)]×100. […]
A general note: Tetrazolium assays rely on reduction of a dye to a coloured formazan, in cell work by metabolically active cells.

In series [2] the test system is J774 murine macrophage cells. Kind of series: MTT cytotoxicity assay of free ceramide and liposomes, 72 hours. The series is classed as cell-based. The settings on record: liposome concentration corrected for ceramide content. Here is the method:
as §1
Cell suspensions were diluted 1:1 with trypan blue, counted with a hemocytometer and seeded into 96-well microtitre plates at […] in 0.2 ml complete medium. […] After 72 hours the cell viability was assessed using a conventional 3-(4,5-dimethylthiazol-2-yl)-2,5-diphenyl tetrazolium bromide (MTT) dye reduction assay. […] The formazan dye was measured spectrophotometrically using a Dynex plate reader (570 nm). […] The cytotoxic effect of each treatment was expressed as percent cell viability relative to untreated control cells (% control) and is defined as: [(Abs570 treated cells)/( Abs570 control cells)]×100.
The inventors next determined whether the stable formulation of C16-ceramide into CHEMS liposomes translated into enhanced cytotoxicity in vitro. […]

Structures are written as SMILES.

In general, IC50 refers to the point on the concentration scale where inhibition reaches its midpoint. A low value points to inhibition by little substance.

In series [1], `CCCCCCCCCCCCC/C=C/[C@@H](O)[C@H](CO)NC(=O)CCCCCCCCC` [C10-ceramide] gave an IC50 of roughly 45 µM.

`CCCCCCCCCCCCC/C=C/[C@@H](O)[C@H](CO)NC(=O)CCCCC` [C6-ceramide] displayed an IC50 in series [2] of 14.4 µM.

Consider `CCCCCCCCCCCCC/C=C/[C@@H](O)[C@H](CO)NC(=O)CCCCCCCCCCCCCCC` [C16-ceramide], for which the IC50 in series [2] was greater than 100 µM.

The values are drawn from patent publication US20070031480A1, “Enhanced delivery of sphingolipids” (priority 2003, published 2007).
